Reference: the supplement of paper PMC10307832

Key:
Test in all cases: relative viability (nuclei count vs DMSO), 5 days (fraction); higher = more cells survive
AZD5582 + Pemetrexed = compound: C[C@@H](C(=O)N[C@@H](C1CCCCC1)C(=O)N2CCC[C@H]2C(=O)N[C@@H]3[C@@H](CC4=CC=CC=C34)OCC#CC#CCO[C@@H]5CC6=CC=CC=C6[C@@H]5NC(=O)[C@@H]7CCCN7C(=O)[C@H](C8CCCCC8)NC(=O)[C@H](C)NC)NC [AZD5582] + Nc1nc2[nH]cc(CCc3ccc(C(=O)N[C@@H](CCC(=O)O)C(=O)O)cc3)c2c(=O)[nH]1 [Pemetrexed] (partner 0.2 µM)
In short: (§1)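 After 5 days of treatment, lung cancer cells in 1536-well plates were fixed and stained in a single step (final 0.05% Triton X-100, 1% formaldehyde, 1 ug/ml Hoechst) and their nuclei counted on 4× images. Treatment had been applied by pin tool the day after seeding as one drug alone or as a fixed anchor-drug dose with five library-drug doses (not always all listed) in √10 steps. Relative viability is the nuclei count of treated wells divided by that of vehicle wells, and values are medians of duplicate plates.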

Temozolomide + OSI-027 = compound: Cn1nnc2c(C(N)=O)ncn2c1=O [Temozolomide] + COc1cccc2cc(-c3nc([C@H]4CC[C@H](C(=O)O)CC4)n4ncnc(N)c34)[nH]c12 [OSI-027] (partner 0.5 µM)
In short: as §1

AZD5582 + Luminespib = compound: C[C@@H](C(=O)N[C@@H](C1CCCCC1)C(=O)N2CCC[C@H]2C(=O)N[C@@H]3[C@@H](CC4=CC=CC=C34)OCC#CC#CCO[C@@H]5CC6=CC=CC=C6[C@@H]5NC(=O)[C@@H]7CCCN7C(=O)[C@H](C8CCCCC8)NC(=O)[C@H](C)NC)NC [AZD5582] + CCNC(=O)c1noc(-c2cc(C(C)C)c(O)cc2O)c1-c1ccc(CN2CCOCC2)cc1 [Luminespib] (partner 0.01 µM)
In short: as §1

AZD5582 + Crizotinib = compound: C[C@@H](C(=O)N[C@@H](C1CCCCC1)C(=O)N2CCC[C@H]2C(=O)N[C@@H]3[C@@H](CC4=CC=CC=C34)OCC#CC#CCO[C@@H]5CC6=CC=CC=C6[C@@H]5NC(=O)[C@@H]7CCCN7C(=O)[C@H](C8CCCCC8)NC(=O)[C@H](C)NC)NC [AZD5582] + C[C@@H](Oc1cc(-c2cnn(C3CCNCC3)c2)cnc1N)c1c(Cl)ccc(F)c1Cl [Crizotinib] (partner 1 µM)
In short: as §1

Cell Line	relative viability (AZD5582 + Pemetrexed; first compound 0.001581 µM)	relative viability (AZD5582 + Pemetrexed; first compound 0.005 µM)	relative viability (AZD5582 + Pemetrexed; first compound 0.01581 µM)	relative viability (AZD5582 + Pemetrexed; first compound 0.05 µM)	relative viability (Temozolomide + OSI-027; first compound 0.2 µM)	relative viability (Temozolomide + OSI-027; first compound 0.6325 µM)	relative viability (Temozolomide + OSI-027; first compound 2 µM)	relative viability (Temozolomide + OSI-027; first compound 6.325 µM)	relative viability (Temozolomide + OSI-027; first compound 20 µM)	relative viability (AZD5582 + Luminespib; first compound 0.001581 µM)	relative viability (AZD5582 + Luminespib; first compound 0.005 µM)	relative viability (AZD5582 + Luminespib; first compound 0.01581 µM)	relative viability (AZD5582 + Luminespib; first compound 0.05 µM)	relative viability (AZD5582 + Crizotinib; first compound 0.001581 µM)	relative viability (AZD5582 + Crizotinib; first compound 0.005 µM)	relative viability (AZD5582 + Crizotinib; first compound 0.01581 µM)	relative viability (AZD5582 + Crizotinib; first compound 0.05 µM)
HCC-15	0.227	0.197	0.218	0.211	0.778	0.68	0.683	0.695	0.669	0.264	0.323	0.278	0.301	0.646	0.536	0.754	0.455
NCI-H3122	0.165	0.152	0.197	0.116	0.404	0.995	1.33	0.949	1.03	0.0928	0.0812	0.0752	0.0956	0.264	0.305	0.298	0.247
NCI-H838	0.258	0.246	0.235	0.262	0.426	0.485	0.397	0.419	0.411	0.33	0.318	–	0.204	0.823	0.914	0.746	1.04
NCI-H1975	0.266	0.248	0.291	0.235	0.888	0.683	0.852	0.731	0.804	0.255	0.282	0.174	0.353	1.07	1.1	0.938	1.04
NCI-H441	0.253	0.314	0.292	0.253	0.597	0.85	0.846	0.523	0.651	0.313	0.388	–	0.422	0.621	0.567	0.62	0.491
NCI-H23	0.578	0.514	0.55	0.455	0.547	0.682	0.565	0.59	0.461	0.212	0.207	–	0.276	0.328	0.316	0.498	0.299
HARA	0.22	0.213	0.214	0.231	0.318	0.656	0.558	0.439	0.226	0.39	0.727	0.733	1.21	1.01	0.894	1.04	1
ABC-1	–	–	–	–	0.554	0.513	0.564	0.517	0.585	0.518	0.243	–	0.369	0.737	0.863	1.04	0.919
NCI-H1563	0.682	0.742	0.586	0.861	0.781	0.817	0.77	0.789	0.796	0.509	0.551	0.52	0.52	0.8	0.86	0.852	0.978
LOU-NH91	0.341	0.367	0.367	0.408	0.494	0.729	0.781	0.756	0.493	0.391	0.321	0.33	0.342	0.713	0.746	0.729	0.741
NCI-H522	0.989	1.13	0.976	0.823	0.723	0.729	0.778	0.665	0.648	0.953	1.03	1.2	1.29	–	–	–	–
EBC-1	–	–	–	–	–	–	–	–	–	–	–	–	–	0.178	0.233	0.181	0.208
NCI-H1648	0.654	0.738	–	0.708	–	0.23	0.262	0.235	0.274	–	–	–	–	–	–	–	–
NCI-H1299	–	–	–	–	–	–	–	–	–	–	–	–	–	0.895	0.895	0.994	0.901
NCI-H1623	–	–	–	–	–	0.462	0.471	0.388	0.297	0.405	0.551	0.572	0.543	–	–	–	–
SW 900	0.366	0.466	0.486	0.435	0.569	0.618	0.47	0.5	0.744	0.168	0.169	0.208	0.188	–	–	–	–
A549	–	–	–	–	–	–	–	–	–	–	–	–	–	0.504	0.923	0.667	0.826
NCI-H2342	0.79	0.747	0.756	0.791	0.544	0.665	0.618	0.59	0.678	0.784	0.887	0.737	0.755	–	–	–	–
NCI-H727	–	–	–	–	0.638	0.779	0.712	0.493	0.534	0.67	0.236	0.507	0.311	0.762	0.896	0.749	0.721
HCC-78	0.931	0.878	0.901	0.949	0.347	0.349	0.362	0.383	0.349	–	–	–	–	0.294	0.353	0.312	0.426
Calu-6	–	–	–	–	–	–	–	–	–	–	–	–	–	0.432	0.384	0.837	0.336
IA-LM	–	–	–	–	–	–	–	–	–	–	–	–	–	0.546	0.63	0.818	0.699
HCC-366	0.119	0.155	0.15	0.152	0.865	0.856	1.03	0.879	0.921	–	–	–	–	0.476	0.517	0.56	0.635
NCI-H1395	0.852	0.964	–	1.13	0.629	0.604	0.686	0.513	0.659	0.579	0.685	0.805	0.91	–	–	–	–
